The results in this text go back to patent US20250332173A1, “COMPOUNDS AND METHODS FOR MODULATING NUCLEIC ACID SPLICING” (REMIX THERAPEUTICS INC., priority 2021, published 2025).

Read-outs that look alike come from different tables or passages of the source. Bounds are passed on as bounds.

As a reminder, the IC50 is the concentration needed to halve the response being measured. Broadly, the AC50 is the concentration at which the activity in the assay is half-maximal. Usually GI50 stands for the concentration at which growth is held to half of that of the control.

One assay relates to MYB mRNA. The assay is described as follows: RT-qPCR splicing assay, MYB canonical junction (CJ) and alternative junction (AJ) mRNA. It is filed as cell-based, human. As to conditions: Homo sapiens; for AC50: increase in MYB alternative junction (AJ) mRNA, read-out: MYB AJ AC50. The method, boiled down: (§1)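 24 h treatment, 37 °C/5% CO2; A673 or K562; 11-pt 3-fold series, top 10 uM final; DMSO ≤0.25%. Cell lysis with DNase I, then 1-step RT-qPCR. Housekeeping normalization: PPIA (A673), GAPDH or GUSB (K562).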
On the technique in general: In qPCR the cycle at which signal appears reflects the starting amount.

A further assay concerns HTT mRNA. Description: RT-qPCR splicing assay, HTT canonical junction (CJ) and alternative junction (AJ) mRNA. Format: cell-based, human. Particulars: Homo sapiens; for AC50: increase in HTT alternative junction (AJ) mRNA, read-out: HTT AJ AC50. The method, boiled down: as §1
For another assay, the system named is Target C. Description: RT-qPCR splicing assay panel, Target C canonical junction (CJ) mRNA. Format: cell-based, human. As to conditions: Homo sapiens; Table 5 panel; canonical junction qPCR; compound concentration having 50% response in CJ decrease; read-out: Target C IC50 (decrease in CJ mRNA levels). An outline of the steps: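 K562/A673 cells, 11-pt 3-fold compound titration from 10 uM final, DMSO ≤0.25%, 24 h 37 °C 5% CO2; lyse (DNase I or Igepal/Tris buffer pH 7.4); RT-qPCR for CJ isoform vs housekeeping gene (GAPDH/GUSB/PPIA).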

Assay [1] has as its system K562 (human chronic myelogenous leukemia) cells. The assay is described as follows: Cell Titer Glo 2.0 cell viability assay. Format: cell-based. Particulars: Homo sapiens, K562, 72 h, K562 cells, 72 hours, Cell Titer Glo 2.0; read-out: K562 GI50. Background: Cellular ATP, detected with luciferase, serves as a proxy for viable cell number.
Where [2] appears, read: Table 5 panel, canonical junction qPCR, compound concentration having 50% response in CJ decrease, read-out: MYB IC50 (decrease in CJ mRNA levels).
The mark [3] stands for this setting: decrease in MYB canonical junction (CJ) mRNA, RT-qPCR, read-out: MYB CJ IC50.
The mark [4] stands for this setting: decrease in HTT canonical junction (CJ) mRNA, RT-qPCR, read-out: HTT CJ IC50.
Setting [5] is: Table 5 panel, canonical junction qPCR, compound concentration having 50% response in CJ decrease, read-out: HTT IC50 (decrease in CJ mRNA levels).

As for `Cc1cn2cc(-c3ccc4c(=O)n(C5CCN(C)CC5)cnc4c3)nc2c(C)n1` [Compound 302], the IC50 in the assay with MYB mRNA (setting [2]), in the assay with MYB mRNA (setting [3]), in the assay with HTT mRNA (setting [4]), with HTT mRNA (setting [5]) and in the assay with Target C was 1 to 10 µM in each case. Besides, the AC50 with MYB mRNA (RT-qPCR) and in the assay with HTT mRNA (RT-qPCR) was 1 to 10 µM each time. For the same compound, the GI50 in assay [1] was 1 to 10 µM.
Regarding `Cc1cn2nc(-c3ccc4c(=O)n(C5CCN(C)CC5)cnc4c3)cc2c(C)n1` [Compound 303], the IC50 in the assay with MYB mRNA (setting [2]), with MYB mRNA (setting [3]), in the assay with HTT mRNA (setting [4]), in the assay with HTT mRNA (setting [5]) and with Target C was 1 to 10 µM throughout. The AC50 with MYB mRNA (RT-qPCR) and in the assay with HTT mRNA (RT-qPCR) was 1 to 10 µM throughout. Moreover, the GI50 in assay [1] is 1 to 10 µM.
Regarding `CC[C@@H]1C[C@H](n2ncc3cc(-c4cc(C)c5nc(C)cn5n4)ccc3c2=O)CCN1` [Compound 304], the IC50 in the assay with MYB mRNA (setting [2]) fell in the range of 0.1 to 1 µM; in the assay with MYB mRNA (setting [3]), 0.1 to 1 µM; in the assay with HTT mRNA (setting [4]), 1 to 10 µM; in the assay with HTT mRNA (setting [5]), 0.1 to 1 µM; in the assay on Target C, 1 to 10 µM. The AC50 in the assay with MYB mRNA (RT-qPCR) was 0.1 to 1 µM; with HTT mRNA (RT-qPCR), 1 to 10 µM. Besides, in assay [1], the GI50 was 0.1 to 1 µM.
On to `Cc1cn2cc(-c3ccc4c(=O)n(C5CCNCC5)cnc4c3)cc(C(F)(F)F)c2n1` [Compound 306], for which the IC50 is 1 to 10 µM with MYB mRNA (setting [2]); more than 10 µM with MYB mRNA (setting [3]); 1 to 10 µM in the assay on HTT mRNA (setting [4]); 1 to 10 µM with HTT mRNA (setting [5]); 1 to 10 µM in the assay with Target C. Also, the half-maximal activity concentration (AC50) with MYB mRNA (RT-qPCR) and in the assay on HTT mRNA (RT-qPCR) was 1 to 10 µM in each case. In addition, in assay [1], the GI50 lay in the range of 0.1 to 1 µM.
With `Cc1cn2cc(-c3ccc4c(=O)n(C5CCN(C)CC5)cnc4c3)ncc2n1` [Compound 308], the IC50 in the assay on MYB mRNA (setting [2]), with MYB mRNA (setting [3]), in the assay on HTT mRNA (setting [4]), in the assay on HTT mRNA (setting [5]) and in the assay with Target C was 1 to 10 µM each time. The AC50 in the assay on MYB mRNA (RT-qPCR) and in the assay on HTT mRNA (RT-qPCR) was 1 to 10 µM each time. Also, the GI50 in assay [1] is 1 to 10 µM.
For the compound `Cc1cn2nc(-c3ccc4c(=O)n(C5CCN(C)CC5)ccc4c3)cc(C)c2n1` [Compound 310], the IC50 was less than 0.1 µM in the assay on MYB mRNA (setting [2]); less than 0.1 µM in the assay on MYB mRNA (setting [3]); 0.1 to 1 µM in the assay on HTT mRNA (setting [4]); 0.1 to 1 µM in the assay with HTT mRNA (setting [5]); 0.1 to 1 µM with Target C. Further, the AC50 is less than 0.1 µM in the assay with MYB mRNA (RT-qPCR) and 0.1 to 1 µM in the assay on HTT mRNA (RT-qPCR). Moreover, in assay [1], the GI50 fell in the range of 1 to 10 µM.
As for `Cc1cc(-c2cnc3c(=O)n(C4CCNCC4)cnc3c2)cc2cn(C)nc12` [Compound 311], the IC50 in the assay with MYB mRNA (setting [2]), in the assay with MYB mRNA (setting [3]), with HTT mRNA (setting [4]), in the assay on HTT mRNA (setting [5]) and with Target C was 1 to 10 µM in each case. Further, the AC50 in the assay with MYB mRNA (RT-qPCR) and with HTT mRNA (RT-qPCR) was 1 to 10 µM throughout. For the same compound, the GI50 in assay [1] was in the range of 1 to 10 µM.
As to `Cc1cn2nc(-c3cc(F)c4c(=O)n(C5CCNC6(CC6)C5)ncc4c3)cc(C)c2n1` (centres unmarked) [Compound 312], the IC50 with MYB mRNA (setting [2]), in the assay on MYB mRNA (setting [3]), in the assay on HTT mRNA (setting [4]), in the assay with HTT mRNA (setting [5]) and in the assay with Target C was less than 0.1 µM throughout. The AC50 in the assay on MYB mRNA (RT-qPCR) and in the assay with HTT mRNA (RT-qPCR) was less than 0.1 µM each time. Moreover, the GI50 in assay [1] was 0.1 to 1 µM.
`Cn1cc2cc(-c3cc(F)c4c(=O)n(C5CCNCC5)cnc4c3)cc(F)c2n1` [Compound 314]: the IC50 was 1 to 10 µM with MYB mRNA (setting [2]); 1 to 10 µM in the assay with MYB mRNA (setting [3]); 1 to 10 µM with HTT mRNA (setting [4]); 1 to 10 µM in the assay with HTT mRNA (setting [5]); more than 10 µM in the assay with Target C. For the same compound, the AC50 in the assay with MYB mRNA (RT-qPCR) and in the assay with HTT mRNA (RT-qPCR) was 1 to 10 µM in each case. The GI50 in assay [1] lay within 1 to 10 µM.
As to `Cn1cc2cc(-c3cc(F)c4c(=O)n(C5CCNCC5)cnc4c3)c(F)cc2n1` [Compound 315], the IC50 with MYB mRNA (setting [2]) was in the range of 0.1 to 1 µM; with MYB mRNA (setting [3]) it was 0.1 to 1 µM; in the assay with HTT mRNA (setting [4]), 1 to 10 µM; in the assay on HTT mRNA (setting [5]) it was 1 to 10 µM; in the assay with Target C, 1 to 10 µM. Also, the AC50 in the assay on MYB mRNA (RT-qPCR) was 0.1 to 1 µM; in the assay with HTT mRNA (RT-qPCR), 1 to 10 µM. Moreover, the GI50 in assay [1] was 1 to 10 µM.
